Laboratory results as given in patent publication US20080262082A1, “COMPOSITION CONTAINING S-(-)-TULIPALIN B OR ACETYLATED-S-(-)-TULIPALIN B” (BIO SPECTRUM, INC., priority 2007, published 2008).
Where two headings read alike, the source gives them in different places.

Assays:
Assay type in all cases: cell-based
[1] = test system: Shigella flexneri KCTC 2517; experiment: MIC by broth dilution method; settings: S. flexneri, 37° C., 24 hours
[2] = test system: Moraxella catarrhalis KCCM 40056; experiment: MIC by broth dilution method; settings: M. catarrhalis, 37° C., 24 hours
[3] = test system: Yersinia enterocolitica KCCM 41657; experiment: Agar diffusion antibacterial test (aerobic); settings: Y. enterocolitica
[4] = test system: Shigella sonnei KCTC 2518; experiment: MIC by broth dilution method; settings: S. sonnei, 37° C., 24 hours
[5] = test system: Aeromonas salmonicida KCTC 12266; experiment: MIC by broth dilution method; settings: A. salmonicida, 37° C., 24 hours
[6] = test system: Aeromonas salmonicida KCTC 12266; experiment: Agar diffusion antibacterial test (aerobic); settings: A. salmonicida
[7] = test system: 18 species of pathogenic bacteria (aerobic); experiment: Agar diffusion antibacterial test, overall (aerobic); settings: all kinds of test bacteria (aerobic), agar diffusion
[8] = test system: Helicobacter pylori KCTC 5335; experiment: MIC by broth dilution method; settings: H. pylori, 37° C., 24 hours
[9] = test system: Pseudomonas aeruginosa KCTC 1637; experiment: Agar diffusion antibacterial test (aerobic); settings: P. aeruginosa
[10] = test system: Neisseria meningitidis KCCM 41562; experiment: MIC by broth dilution method; settings: N. meningitidis, 37° C., 24 hours
[11] = test system: Propionibacterium granulosum ATCC 25564; experiment: Agar diffusion antibacterial test (anaerobic); settings: P. granulosum
[12] = test system: Clostridium perfringens KCCM 12098; settings: C. perfringens; broth dilution, 37° C., 24 hours
[13] = test system: Staphylococcus aureus KCTC 1916; experiment: Agar diffusion antibacterial test (aerobic); settings: S. aureus
[14] = test system: Shigella flexneri KCTC 2517; experiment: Agar diffusion antibacterial test (aerobic); settings: S. flexneri
[15] = test system: Streptococcus mutans KCTC 3065; experiment: MIC by broth dilution method; settings: S. mutans, 37° C., 24 hours
[16] = test system: Clostridium perfringens KCCM 12098; settings: C. perfringens
[17] = test system: Streptococcus mutans KCTC 3065; experiment: Agar diffusion antibacterial test (aerobic); settings: S. mutans
[18] = test system: Bacteroides fragilis KCTC 3688; experiment: MIC by broth dilution method; settings: B. fragilis, 37° C., 24 hours
[19] = test system: Neisseria meningitidis KCCM 41562; experiment: Agar diffusion antibacterial test (aerobic); settings: N. meningitidis
[20] = test system: Legionella pneumophila KCCM 41779; settings: L. pneumophila; broth dilution, 37° C., 24 hours
[21] = test system: Actiinobacillus ureae KCTC 2674; experiment: Agar diffusion antibacterial test (aerobic); settings: A. ureae
[22] = test system: Clostridium dificile KCCM 12115; experiment: MIC by broth dilution method; settings: C. difficile, 37° C., 24 hours
[23] = test system: 8 anaerobic bacterial species; experiment: Agar diffusion antibacterial test, overall (anaerobic); settings: 8 anaerobic bacterial spp, agar diffusion
[24] = test system: Shigella sonnei KCTC 2518; experiment: Agar diffusion antibacterial test (aerobic); settings: S. sonnei
[25] = test system: Campylobacter jejuni KCTC 5327; experiment: MIC by broth dilution method; settings: C. jejuni, 37° C., 24 hours
[26] = test system: Pseudomonas aeruginosa KCTC 1637; experiment: MIC by broth dilution method; settings: P. aeruginosa, 37° C., 24 hours
[27] = test system: Listeria monocytogenes KCTC 3569; experiment: MIC by broth dilution method; settings: L. monocytogenes, 37° C., 24 hours
[28] = test system: Listeria monocytogenes KCTC 3569; experiment: Agar diffusion antibacterial test (aerobic); settings: L. monocytogenes
[29] = test system: Bacillus subtilis KCTC 1021; experiment: MIC by broth dilution method; settings: B. subtilis, 37° C., 24 hours
[30] = test system: Vibrio parahaemolyticus KCTC 27; experiment: Agar diffusion antibacterial test (aerobic); settings: V. parahaemolyticus

C=C1C(=O)OC[C@H]1O [S-(−)-tulipalin B, (4S)-4-hydroxy-3-methylene-oxolan-2-one]
15 mm: Inhibitory zone diameter ([11]; treatment concentration 0.3%) | Inhibitory zone diameter ([13]; treatment concentration 0.3%)
18 mm: Inhibitory zone diameter ([13]; treatment concentration 1.0%) | Inhibitory zone diameter ([14]; treatment concentration 0.3%) | Inhibitory zone diameter ([19]; treatment concentration 1.0%) | Inhibitory zone diameter ([30]; treatment concentration 0.3%)
relatively high antibacterial effects: Antibacterial effects [23]
14 mm: Inhibitory zone diameter ([9]; treatment concentration 1.0%) | Inhibitory zone diameter ([16]; treatment concentration 1.0%) | Inhibitory zone diameter ([30]; treatment concentration 0.1%)
0.08%: MIC [12]
13 mm: Inhibitory zone diameter ([3]; treatment concentration 0.1%) | Inhibitory zone diameter ([6]; treatment concentration 0.1%) | Inhibitory zone diameter ([11]; treatment concentration 0.1%) | Inhibitory zone diameter ([14]; treatment concentration 0.1%) | Inhibitory zone diameter ([16]; treatment concentration 0.3%) | Inhibitory zone diameter ([17]; treatment concentration 0.3%) | Inhibitory zone diameter ([28]; treatment concentration 0.3%) | Inhibitory zone diameter ([30]; treatment concentration 0.03%)
17 mm: Inhibitory zone diameter ([3]; treatment concentration 0.3%) | Inhibitory zone diameter ([6]; treatment concentration 0.3%) | Inhibitory zone diameter ([21]; treatment concentration 0.3%) | Inhibitory zone diameter ([24]; treatment concentration 0.3%)
0.10%: MIC [15] | MIC [22] | MIC [27]
0.03%: MIC [2] | MIC [4] | MIC [20]
11.5 mm: Inhibitory zone diameter ([3]; treatment concentration 0.03%)
10.5 mm: Inhibitory zone diameter ([11]; treatment concentration 0.03%) | Inhibitory zone diameter ([14]; treatment concentration 0.03%)
16 mm: Inhibitory zone diameter ([11]; treatment concentration 1.0%) | Inhibitory zone diameter ([17]; treatment concentration 1.0%) | Inhibitory zone diameter ([19]; treatment concentration 0.3%) | Inhibitory zone diameter ([28]; treatment concentration 1.0%)
0.025%: MIC [1]
0.01%: MIC [5] | MIC [8] | MIC [10] | MIC [18]
0.11%: MIC [26]
high antibacterial effects: Antibacterial effects [7]
0.04%: MIC [29]
19 mm: Inhibitory zone diameter ([3]; treatment concentration 1.0%) | Inhibitory zone diameter ([6]; treatment concentration 1.0%) | Inhibitory zone diameter ([14]; treatment concentration 1.0%) | Inhibitory zone diameter ([21]; treatment concentration 1.0%) | Inhibitory zone diameter ([24]; treatment concentration 1.0%) | Inhibitory zone diameter ([30]; treatment concentration 1.0%)
0.008%: MIC [25]
12 mm: Inhibitory zone diameter ([6]; treatment concentration 0.03%) | Inhibitory zone diameter ([9]; treatment concentration 0.3%) | Inhibitory zone diameter ([13]; treatment concentration 0.1%) | Inhibitory zone diameter ([19]; treatment concentration 0.1%) | Inhibitory zone diameter ([21]; treatment concentration 0.1%) | Inhibitory zone diameter ([24]; treatment concentration 0.1%)
11 mm: Inhibitory zone diameter ([6]; treatment concentration 0.01%) | Inhibitory zone diameter ([16]; treatment concentration 0.1%) | Inhibitory zone diameter ([17]; treatment concentration 0.1%) | Inhibitory zone diameter ([19]; treatment concentration 0.03%) | Inhibitory zone diameter ([21]; treatment concentration 0.03%) | Inhibitory zone diameter ([24]; treatment concentration 0.03%) | Inhibitory zone diameter ([28]; treatment concentration 0.1%) | Inhibitory zone diameter ([30]; treatment concentration 0.01%)
